According to publication PMC8062543 (Scientific Reports, 2021):

Legend:
MtmGDH [1] = molecular target: T1, MtmGDH (Methylotuvimicrobium alcaliphilum, UniProt G4T0V2); test: biochemical; conditions: read-out: % of control remaining; for remaining activity at 1000 µM: 1 mM; for remaining activity at 5000 µM: 5 mM
T1 construct: gene gdhI; full ORF, N-terminal His6 kept, E. coli Rosetta (DE3), pET28
T1 sequence (G4T0V2 1-271): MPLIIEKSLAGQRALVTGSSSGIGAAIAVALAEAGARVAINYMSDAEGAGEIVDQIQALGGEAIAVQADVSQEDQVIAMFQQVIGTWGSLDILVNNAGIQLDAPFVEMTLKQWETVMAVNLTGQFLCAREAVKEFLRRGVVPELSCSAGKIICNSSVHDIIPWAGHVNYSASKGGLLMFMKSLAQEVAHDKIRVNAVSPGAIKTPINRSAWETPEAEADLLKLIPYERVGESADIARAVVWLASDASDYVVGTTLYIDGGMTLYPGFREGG
Procedure: GDH activity assay The activity of GDH from Mtm. alcaliphilum was measured by recording the rate of NAD^+ or NADP^+ reduction at 30 °C. 1 mL of the reaction mixture routinely contained 50 mM Glycine–NaOH buffer, pH 10.0; 0.3 mM NAD(P)^+ and ~ 1 μg of GDH. The reaction was started with 200 mM D-glucose. The activity of Mb. luteus GDH was measured using 20 mM D-glucose in 50 mM Tris–HCl, pH 8.5. […] The effect of pH on the activity was studied using the following buffers (50 mM): Glycine–NaOH (pH 9.0–10.5), CHES-NaOH (pH 8.5–10.0), Tris–HCl (pH 7.5–9.0), and MES-NaOH (pH 5.0–7.0). KCl, NH4Cl or NaCl at a final concentration of 50 mM were added to test the effect of monovalent ions on the enzyme activity. The effects of divalent metals were assessed using MgCl2, MnCl2, [compound left out], CuCl2, CdCl2, NiCl2 or ZnCl2 at a final concentration of 1 mM. Glucose-6-phosphate, glucose-1-phosphate, fructose-6-phosphate, fructose-1,6-bisphosphate (5 mM), pyruvate, PEP, oxaloacetate, lactate, malate, isocitrate, citrate, succinate, serine, α-ketoglutarate, ATP, ADP, AMP and PPi (1 mM) were examined as potential inhibitors or activators. To determine the optimal temperature for enzyme activity, the reaction was carried out in a temperature range of 10–70 °C.

MtmGntK = molecular target: T2, MtmGntK (Methylotuvimicrobium alcaliphilum, UniProt G4T089); test: biochemical; design: recombinant gluconate kinase activity, coupled to 6-phosphogluconate dehydrogenase, NADPH at 340 nm, effect of added metabolite; conditions: read-out: % of control remaining; for remaining activity at 5000 µM: 5 mM; for remaining activity at 1000 µM: 1 mM
T2 construct: gene gntK; C-terminal His6, E. coli Rosetta (DE3), pET30; ~20 kDa, monomer
T2 sequence (G4T089 1-181): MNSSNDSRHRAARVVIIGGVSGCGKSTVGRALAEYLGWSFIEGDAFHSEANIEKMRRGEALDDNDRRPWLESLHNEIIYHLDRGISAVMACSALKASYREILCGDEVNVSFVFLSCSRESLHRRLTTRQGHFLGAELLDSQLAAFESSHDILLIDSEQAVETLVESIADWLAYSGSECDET
Procedure: GntK activity assay The activity of GntK was measured in the reaction mixture containing 50 mM Tris–HCl buffer, pH 9.0; 8 mM MgCl2; 6 mM gluconate; 5 mM ATP; 0.3 mM NADP^+; 5U 6-phosphogluconate dehydrogenase (6PGDH, Sigma-Aldrich) as a coupling enzyme and ~ 15 µg GntK. The activity of Mb. luteus GntK was assayed in 50 mM Tris–HCl buffer (pH 8.0). The reaction was started with 6 mM sodium gluconate. To study the effect of pH, the following buffers were used (50 mM): Carbonate (pH 9.0–10.5), TAPS-NaOH (pH 8.0–9.0), Tris–HCl (pH 7.5–9.0), K-phosphate (pH 7.0–8.0), MES-NaOH (pH 5.0–6.0) or citrate (pH 4.0–5.0). […] The NAD^+/NADP^+ reduction rates were measured at 340 nm with a UV-1700 spectrophotometer (Shimadzu). The apparent Km and Vmax values were calculated using Sigma Plot (version 10). The exponentially grown cells were used to measure enzymatic activity in cell-free extracts.

MbGDH = molecular target: T3, MbGDH (Methylobacter luteus, UniProt Z9JUG8QEO0); test: NAD(P)H formation at […] nm; assay type: biochemical; conditions: inhibitor; 10 mM in results (5 mM in methods); pH 8.5 Tris-HCl, 20 mM D-glucose
T3 construct: gene gdh; full ORF, N-terminal His6 (pET28Ub-shHis)
T3 sequence (Z9JUG8QEO0 1-271 limits assumed): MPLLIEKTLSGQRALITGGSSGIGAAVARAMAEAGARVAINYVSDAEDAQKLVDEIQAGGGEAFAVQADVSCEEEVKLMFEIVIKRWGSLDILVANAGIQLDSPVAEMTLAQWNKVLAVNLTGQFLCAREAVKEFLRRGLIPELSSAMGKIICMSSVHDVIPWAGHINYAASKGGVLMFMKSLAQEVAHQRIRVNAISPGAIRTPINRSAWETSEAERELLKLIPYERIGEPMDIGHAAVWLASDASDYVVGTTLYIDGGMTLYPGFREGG

MtmGDH [2] = molecular target: T4, MtmGDH (Methylotuvimicrobium alcaliphilum, UniProt G4T0V2); test: NAD(P)H formation at […] nm; assay type: biochemical; conditions: activator; pH 10.0 glycine-NaOH, 30 °C, 200 mM D-glucose
T4 construct: gene gdhI; full ORF, N-terminal His6 kept, E. coli Rosetta (DE3), pET28

[3] = tested on: T5, NC(=O)c1ccc[n+]([C@@H]2O[C@H](COP(=O)(O)OP(=O)(O)OC[C@H]3O[C@@H](n4cnc5c(N)ncnc54)[C@H](OP(=O)(O)O)[C@@H]3O)[C@@H](O)[C@H]2O)c1; test: purified protein; assay type: biochemical, Methylobacter luteus; conditions: pH 8.5 Tris-HCl, D-glucose
T5 construct: full ORF, N-terminal His6 (pET28Ub-shHis)

[4] = tested on: T6, NC(=O)c1ccc[n+]([C@@H]2O[C@H](COP(=O)(O)OP(=O)(O)OC[C@H]3O[C@@H](n4cnc5c(N)ncnc54)[C@H](O)[C@@H]3O)[C@@H](O)[C@H]2O)c1; test: purified protein; assay type: biochemical, Methylobacter luteus; conditions: pH 8.5 Tris-HCl, D-glucose
T6 construct: full ORF, N-terminal His6 (pET28Ub-shHis)

[5] = molecular target: glucose dehydrogenase (GDH) from Methylobacter luteus IMV-B-3098 (Methylobacter luteus IMV-B-3098); test: SEC; gel filtration on XK 16/100 Superdex 200, 0.02 M Tris-HCl pH 7.0 with 0.5 M NaCl, calibrated with protein markers; GDHs with the cut-off His-tag
[6] = molecular target: glucose dehydrogenase (GDH) from Methylotuvimicrobium alcaliphilum 20Z (Methylotuvimicrobium alcaliphilum 20Z); test: as above
purified protein [7] = substrate: NC(=O)c1ccc[n+]([C@@H]2O[C@H](COP(=O)(O)OP(=O)(O)OC[C@H]3O[C@@H](n4cnc5c(N)ncnc54)[C@H](OP(=O)(O)O)[C@@H]3O)[C@@H](O)[C@H]2O)c1; test: purified protein; assay type: biochemical, Methylotuvimicrobium alcaliphilum; conditions: pH 10.0 glycine-NaOH, 30 °C, 200 mM D-glucose
purified protein [8] = substrate: NC(=O)c1ccc[n+]([C@@H]2O[C@H](COP(=O)(O)OP(=O)(O)OC[C@H]3O[C@@H](n4cnc5c(N)ncnc54)[C@H](O)[C@@H]3O)[C@@H](O)[C@H]2O)c1; test: purified protein; assay type: biochemical, Methylotuvimicrobium alcaliphilum; conditions: pH 10.0 glycine-NaOH, 30 °C, 200 mM D-glucose
purified protein [9] = substrate: Nc1ncnc2c1ncn2[C@@H]1O[C@H](COP(=O)(O)OP(=O)(O)OP(=O)(O)O)[C@@H](O)[C@H]1O; test: purified protein; assay type: biochemical, Methylotuvimicrobium alcaliphilum; conditions: pH 9.0 Tris-HCl, 8 mM MgCl2, 6 mM gluconate, Hill n = 1.6
purified protein [10] = substrate: O=C(O)[C@H](O)[C@@H](O)[C@H](O)[C@H](O)CO; test: purified protein; assay type: biochemical, Methylotuvimicrobium alcaliphilum; conditions: pH 9.0 Tris-HCl, 8 mM MgCl2, 5 mM ATP

N[C@@H](CO)C(=O)O [Serine]
remaining activity at 1000 µM (MtmGDH [1]): 108 ± 3%

C=C(OP(=O)(O)O)C(=O)O [Phosphoenolpyruvate]
remaining activity at 5000 µM (MtmGntK): 84 ± 1%
remaining activity at 1000 µM (MtmGDH [1]): 94%

CC(O)C(=O)O (stereo not drawn) [Lactate]
remaining activity at 1000 µM (MtmGDH [1]): 116 ± 1%

O=C(O)CC(O)(CC(=O)O)C(=O)O [Citrate]
remaining activity at 1000 µM (MtmGDH [1]): 119 ± 1%

O=P(O)(O)OC[C@H]1OC(O)[C@H](O)[C@@H](O)[C@@H]1O (stereo partly drawn) [glucose-6-phosphate]
remaining activity at 5000 µM (MtmGntK): 96 ± 1%
% decrease of activity at 10 mM (MbGDH): 40%

CC(=O)C(=O)O [Pyruvate]
remaining activity at 3000 µM (MtmGntK; 3 mM): 95 ± 2%
remaining activity at 1000 µM (MtmGDH [1]): 96 ± 1%

Nc1ncnc2c1ncn2[C@@H]1O[C@H](COP(=O)(O)O)[C@@H](O)[C@H]1O [AMP]
remaining activity at 4000 µM (MtmGntK; 4 mM): 98 ± 1%
remaining activity at 1000 µM (MtmGDH [1]): 109 ± 1%

O=C(O)CC(=O)C(=O)O [Oxaloacetate]
remaining activity at 1000 µM (MtmGntK): 101 ± 1%
remaining activity at 1000 µM (MtmGDH [1]): 107 ± 3%

O=C(CO)[C@@H](O)[C@H](O)[C@H](O)COP(=O)(O)O [Fructose-6-phosphate]
remaining activity at 5000 µM (MtmGDH [1]): 101 ± 1%

O=P(O)(O)O[C@H]1O[C@H](CO)[C@@H](O)[C@H](O)[C@H]1O [Glucose-1-phosphate]
remaining activity at 5000 µM (MtmGDH [1]): 103 ± 1%

O=P(O)(O)O[C@H]1O[C@H](CO)[C@@H](O)[C@H](O)[C@H]1O [Glucose 1-Phosphate]
remaining activity at 5000 µM (MtmGntK): 96 ± 2%

O=C(O)C[C@H](C(=O)O)[C@@H](O)C(=O)O [isocitrate]
% increase of activity at 1 mM (MtmGDH [2]): 40%
remaining activity at 1000 µM (MtmGDH [1]): 140 ± 4%

O=C(O)CCC(=O)C(=O)O [α-Ketoglutarate]
remaining activity at 1000 µM (MtmGntK): 90 ± 2%
remaining activity at 1000 µM (MtmGDH [1]): 104 ± 1%

O=C(O)CCC(=O)O [Succinate]
remaining activity at 1000 µM (MtmGDH [1]): 99 ± 1%

Nc1ncnc2c1ncn2[C@@H]1O[C@H](COP(=O)(O)OP(=O)(O)O)[C@@H](O)[C@H]1O [ADP]
remaining activity at 5000 µM (MtmGntK): 71 ± 1%
remaining activity at 1000 µM (MtmGDH [1]): 87 ± 1%

MbGDH (Methylobacter luteus)
Km [3]: 1600 ± 300 µM
kcat [3]: 0.067 s⁻¹
Km [4]: 120 ± 20 µM
kcat [4]: 0.05 s⁻¹

O=P(O)(O)OC[C@H]1O[C@@](O)(COP(=O)(O)O)[C@@H](O)[C@@H]1O [Fructose-1,6-bisphosphate]
remaining activity at 5000 µM (MtmGDH [1]): 103 ± 1%

O=C(O)CC(O)C(=O)O (stereo not drawn) [Malate]
remaining activity at 1000 µM (MtmGDH [1]): 95 ± 5%

Nc1ncnc2c1ncn2[C@@H]1O[C@H](COP(=O)(O)OP(=O)(O)OP(=O)(O)O)[C@@H](O)[C@H]1O [ATP]
remaining activity at 1000 µM (MtmGDH [1]): 93 ± 2%

glucose dehydrogenase (GDH) from Methylobacter luteus IMV-B-3098 (enzyme)
stoichiometry N [5]: 4

glucose dehydrogenase (GDH) from Methylotuvimicrobium alcaliphilum 20Z (enzyme)
stoichiometry N [6]: 4

B1: MtmGDH without His6-tag (Methylotuvimicrobium alcaliphilum 20Z) (protein)
chain: T1 sequence (G4T0V2 1-271)
notes: full ORF, His6 tag cut off with Usp2-His6 protease (not repurified afterwards), E. coli Rosetta (DE3), pET28Ub-shHis; homotetramer 112 kDa
Km (purified protein [7]): 340 ± 20 µM
Km (purified protein [8]): 390 ± 60 µM

B2: MtmGDH (Methylotuvimicrobium alcaliphilum 20Z) (protein)
chain: T1 sequence (G4T0V2 1-271)
notes: full ORF, N-terminal His6 kept, E. coli Rosetta (DE3), pET28
Km (purified protein [7]): 140 ± 10 µM
kcat (purified protein [7]): 0.00583 s⁻¹
Km (purified protein [8]): 360 ± 20 µM
kcat (purified protein [8]): 0.177 s⁻¹

B3: MtmGntK (Methylotuvimicrobium alcaliphilum 20Z) (protein)
chain: T2 sequence (G4T089 1-181)
notes: C-terminal His6, E. coli Rosetta (DE3), pET30; ~20 kDa, monomer
K0.5 (purified protein [9]): 1.3 ± 0.2 mM
kcat (purified protein [9]): 0.00867 s⁻¹
K0.5 (purified protein [10]): 0.6 ± 0.04 mM
kcat (purified protein [10]): 0.00433 s⁻¹
